Patent US7531646B2, “β-D-ribosidase activity indicators with a chromogenic substrate” (priority 2001, dated 2009)
Like-named read-outs stand apart in the source and are kept apart here.

Tests used:
K. pneumoniae [1] = experiment: Evaluation of galactoside substrates with metal salts forming chelates; conditions: IPTG 30 mg/l; for Colour of colonies: K. pneumoniae
E. coli [2] = experiment: Evaluation of benzophenone glucoside on agar (Table 6); format: cell-based; set-up: growth: key to the marks not given beside the values; conditions: ferric ammonium nitrate at 500 mg/l
Excerpt: (§1) This was achieved using a densitometer.
(§2) The background agar was beige.

S. aureus = experiment: as above; format: cell-based; set-up: growth: key to the marks not given beside the values; conditions: ferric ammonium nitrate at 500 mg/l
Excerpt: as §1, §2

S. sonnei = experiment: as above; format: cell-based; set-up: growth: key to the marks not given beside the values; conditions: ferric ammonium nitrate at 500 mg/l
Excerpt: as §1, §2

Gram positive organisms = experiment: Evaluation of benzophenone glucoside on agar, screen; format: cell-based
Excerpt: as §1, §2

K. pneumoniae [3] = experiment: Evaluation of benzophenone glucoside on agar (Table 6); set-up: growth: key to the marks not given beside the values; conditions: ferric ammonium nitrate at 500 mg/l
E. faecalis = experiment: as above; conditions: ferric ammonium nitrate at 500 mg/l
L. monocytogenes = experiment: as above; conditions: ferric ammonium nitrate at 500 mg/l
E. coli [4] = experiment: Evaluation of methoxyflavone riboside with metal salts; format: cell-based
Excerpt: as §1
(§3) The substrate shown in the heading was synthesised from the same flavone starting material as Example 11 by a method analogous to that of Example 2. […] The species tested was E. coli. […] When the aluminium salt-containing medium was used with a mixed culture of E. coli and Yersinia entermcolitica, the E. coli colonies were bright yellow and stood out very clearly.

Y. enterocolitica = experiment: as above; format: cell-based; conditions: aluminium salt-containing medium; mixed culture with E. coli
Excerpt: as §1, §3

All species tested = experiment: Evaluation of phosphate substrate on agar, all species tested; format: cell-based
Staphylococcus aureus = experiment: Evaluation of phosphate substrate on agar (Table 3); format: cell-based; conditions: Staphylococcus aureus NCTC 6571
Acinetobacter lwoffii = experiment: as above; format: cell-based; conditions: Acinetobacter lwoffii ATCC 15309
Clostridium perfringens = format: cell-based; conditions: Clostridium perfringens NCTC 8181; incubated anaerobically
Enterococcus faecalis = experiment: Evaluation of phosphate substrate on agar (Table 3); format: cell-based; conditions: Enterococcus faecalis NCTC 775
Yersinia enterocolitica = format: cell-based; conditions: Yersinia enterocolitica NCTC 11197
Escherichia coli = experiment: Evaluation of phosphate substrate on agar (Table 3); format: cell-based; conditions: Escherichia coli NCTC 10418
bacterial enzymes = conditions: cited from earlier work

With “3′,4′-Dihydroxyflavone-4′-β-galactopyranoside sodium salt” the Colour of colonies (K. pneumoniae [1]; Metal Al, salt 500 mg/l) was “Yellow”, the Colour of colonies (K. pneumoniae [1]; Metal Ba, salt 500 mg/l) was “Pale yellow” and the Colour of colonies (K. pneumoniae [1]; Metal Bi, salt 500 mg/l) was “Rusty orange”. The Colour of colonies (K. pneumoniae [1]; Metal Co, salt 500 mg/l) was “(inhibits; no growth)”, the Colour of colonies (K. pneumoniae [1]; Metal Cu, salt 500 mg/l) was “Orange/brown” and the Colour of colonies (K. pneumoniae [1]; Metal Fe, salt 500 mg/l) was “Dark brown or black”. For the same molecule, the Colour of colonies (K. pneumoniae [1]; Metal Mn, salt 500 mg/l) was “Pale orange”, the Colour of colonies (K. pneumoniae [1]; Metal Sn, salt 500 mg/l) was “Pale yellow” and the Colour of colonies (K. pneumoniae [1]; Metal Sr, salt 500 mg/l) was “Yellow”. For the same molecule, the Colour of colonies (K. pneumoniae [1]; Metal Zn, salt 500 mg/l) was “(inhibits; no growth)” and the Colour of colonies (K. pneumoniae [1]; No metal) was “Diffuse pale yellow”.
In the case of `COc1c(C(=O)c2ccccc2)ccc(O[C@@H]2O[C@H](CO)[C@@H](O)[C@H](O)[C@H]2O)c1O` [3,4-dihydroxy-2-methoxybenzophenone-4-β-D-glucopyranoside], the colony colour (E. coli [2]) is reported as “cream”, the growth (E. coli [2]) is reported as “++” and the colony colour (S. aureus) is reported as “cream”. For the same molecule, the growth (S. aureus) was “++”, the colony colour (S. sonnei) was “cream” and the growth (S. sonnei) was “++”. The effect on growth (Gram positive organisms) was “growth inhibiting”, the colony colour (K. pneumoniae [3]) was “red/brown” and the growth (K. pneumoniae [3]) was “++”. For the same molecule, the colony colour (E. faecalis) was “cream” and the colony colour (L. monocytogenes) was “pale black”.
In the case of `COc1c(-c2ccc(O[C@@H]3O[C@H](CO)[C@H](O)[C@H](O)[C@H]3O)c(O)c2)oc2ccccc2c1=O` [3′,4′-dihydroxy-3-methoxyflavone-4′-β-D-galactopyranoside], the “Colour of K. pneumoniae colonies” value (K. pneumoniae [1]; Metal Al, salt 500 mg/l) is reported as “Yellow”, the “Colour of K. pneumoniae colonies” value (K. pneumoniae [1]; Metal Ba, salt 500 mg/l) is reported as “Yellow” and the “Colour of K. pneumoniae colonies” value (K. pneumoniae [1]; Metal Bi, salt 500 mg/l) is reported as “Rusty orange”. For the same molecule, the “Colour of K. pneumoniae colonies” value (K. pneumoniae [1]; Metal Co, salt 500 mg/l) was “No growth”, the “Colour of K. pneumoniae colonies” value (K. pneumoniae [1]; Metal Fe, salt 500 mg/l) was “Brown” and the “Colour of K. pneumoniae colonies” value (K. pneumoniae [1]; Metal Mn, salt 500 mg/l) was “Pale orange”. The “Colour of K. pneumoniae colonies” value (K. pneumoniae [1]; Metal Sn, salt 500 mg/l) was “Yellow”, the “Colour of K. pneumoniae colonies” value (K. pneumoniae [1]; Metal Sr, salt 500 mg/l) was “Yellow” and the “Colour of K. pneumoniae colonies” value (K. pneumoniae [1]; Metal Zn, salt 500 mg/l) was “No growth”. For the same molecule, the “Colour of K. pneumoniae colonies” value (K. pneumoniae [1]; No metal) was “Diffuse yellow”.
In the case of `COc1c(-c2ccc(O[C@@H]3O[C@H](CO)[C@@H](O)[C@H]3O)c(O)c2)oc2ccccc2c1=O` [3′,4′-dihydroxy-3-methoxyflavone-4′-β-D-ribofuranoside], the colour of precipitates (E. coli [4]; E. coli, in the presence of metal salts) is reported as “coloured almost identically to the corresponding products referred to in Table 4”, the “colour of E. coli colonies” value (E. coli [4]; aluminium salt-containing medium, mixed culture of E. coli and Yersinia) is reported as “bright yellow” and the “colour of Y. enterocolitica colonies” value (Y. enterocolitica) is reported as “colourless”.
In the case of `COc1c(-c2ccc(OP(=O)(O)O)c(O)c2)oc2ccccc2c1=O` [Example 11], the “growth on this medium” value (All species tested) is reported as “grew well”, the Interpretation (Staphylococcus aureus) is reported as “Positive” and the colony appearance (Staphylococcus aureus) is reported as “dark green”. The Interpretation (Acinetobacter lwoffii) was “Negative”, the colony appearance (Acinetobacter lwoffii) was “colourless” and the Interpretation (Clostridium perfringens) was “Positive”. For the same molecule, the colony appearance (Clostridium perfringens) was “dark green”, the Interpretation (Enterococcus faecalis) was “Positive” and the colony appearance (Enterococcus faecalis) was “small dark green/black”. For the same molecule, the Interpretation (Yersinia enterocolitica) was “Negative”, the colony appearance (Yersinia enterocolitica) was “colourless” and the Interpretation (Escherichia coli) was “Positive”. For the same molecule, the colony appearance (Escherichia coli) was “pale green”.
For `O=C1c2ccccc2C(=O)c2c1ccc(O[C@@H]1O[C@H](CO)[C@H](O)[C@H](O)[C@H]1O)c2O` [alizarin β-D-galactopyranoside, alizarin β-D- galactopyranoside], the Colour of colonies (bacterial enzymes; in the presence of aluminium salts) is given as “bright-red” and the Colour of colonies (bacterial enzymes; in the presence of iron salts) is given as “bright-violet”.
